In experiment [1] the test system is prenatally valproate-treated rats. The experiment can be described thus: social recognition memory in the 3-chamber apparatus in prenatally valproate-treated rats. The settings on record: postnatal day 60. The experiment is classed as in vivo, rat. The procedure:
In this method, time-mated female Wistar rats are administered a single dose of VPA (600 mg/kg, i.p.) on gestational day 12.5. Offspring are housed according to standard laboratory conditions until time of behavioral testing. Animals are housed in groups of 4 in conventional cages and maintained at 22-24° C. on a standard 12 hours light/dark cycle, with food and water available ad libitum. After investigational drug treatment, offspring are examined behaviorally in tests relevant for the assessment of autistic behavior. These tests include social play, social preference and social recognition memory. These tests are suitable to assess behavioral elements that represent core ASD symptoms in experimental animals. […] Doses of the investigational drug were corrected for the dicitrate salt with a correction factor of 2.07 and are expressed as free base. […]
(§1) The social preference and recognition memory assays in a 3-chamber apparatus are further indicators of intact social behavior in rats. […] On postnatal day 59, prenatally VPA-treated rats are assessed for their social preference following 8 days of per os treatment with the test compound. On postnatal day 60, the same rats are assessed for their social recognition memory after 9 days of per os treatment with the test compound. […]

Experiment [2] has the same test system. Kind of experiment: social preference in the 3-chamber apparatus in prenatally valproate-treated rats. The experiment is classed as in vivo, rat. Conditions: postnatal day 59. The method, then:
(§2) In this method, time-mated female Wistar rats are administered a single dose of VPA (600 mg/kg, i.p.) on gestational day 12.5. Offspring are housed according to standard laboratory conditions until time of behavioral testing. Animals are housed in groups of 4 in conventional cages and maintained at 22-24° C. on a standard 12 hours light/dark cycle, with food and water available ad libitum. After investigational drug treatment, offspring are examined behaviorally in tests relevant for the assessment of autistic behavior. These tests include social play, social preference and social recognition memory. These tests are suitable to assess behavioral elements that represent core ASD symptoms in experimental animals. Efficaciousness of an investigational compound (ie. improvement of behavioral deficits induced by prenatal VPA exposure) may indicate usefulness in the pharmacotherapy of core symptoms of ASD. Doses of the investigational drug were corrected for the dicitrate salt with a correction factor of 2.07 and are expressed as free base. Reference is herein made to a parallel patent application filed by the applicant with the title of “Selective histamine H3 receptor antagonist acid addition salts and process for the preparation thereof” wherein the salts, including dicitrate salt is disclosed in detail.
as §1, with “rats. The preference of a conspecific over an inanimate object as well as the ability to distinguish between familiar and novel conspecifics are necessary for normal social functioning and are defective in the prenatal VPA model in rats (Bambini-Junior et al., Brain Res. 2011, 1408:8-16).” for “rats.”

Experiment [3] relates to prenatally valproate-exposed rat pups. The experiment can be described thus: maternal deprivation-induced ultrasonic vocalization in prenatally valproate-exposed rat pups. The experiment is classed as in vivo. Conditions: 0.01-1 mg/kg oral, co-administered with oral risperidone 0.003 mg/kg; prenatal valproate 300 mg/kg. The procedure:
Maternal deprivation-induced ultrasonic vocalization in rat pups is a readout of socio-communicational function that is impaired in offspring after prenatal exposure to VPA (Gandal et al., Biol. Psychiatry 2010, 68, 1100-1106). To induce ultrasonic calls, prenatally VPA treated rat pups are placed individually into a cage where calls are being recorded with bat microphones. Calls are digitized with an audio filter and ultrasonic vocalization is recorded and quantified with SonoTrack software (Metris bv. The Netherlands). Baseline vocalization is measured on postnatal days 11-12 days for 10 min. Animals are divided into homogenous groups based on baseline vocalizations. On postnatal day 13, animals are treated p.o. with the appropriate doses of drug or vehicle 60 min before measurement and then returned to their nests until recording. Ultrasonic call counts are recorded for 10 min. Statistical analysis is performed on ultrasonic call counts with the non-parametric Kruskal-Wallis test and the post hoc Dunnett test.
The behavioral effect of the co-administration of 1-[4-(4-{3-[(2R)-2-methyl-pyrrolidin-1-yl]-propoxy)-phenoxy)-piperidin-1-yl]-ethan-1-one dicitrate and risperidone was studied in prenatally valproate-exposed (300 mg/kg) rat pups on ultrasound emissions induced by separation from their mothers. […]

The subject of experiment [4] is prenatally valproate-treated rats. Kind of experiment: social play assay in prenatally valproate-treated rats. The format is in vivo, rat. Conditions: postnatal day 30. The procedure: as §2
Social play is a type of social interaction that is highly typical of adolescent mammals including rodents as well as humans (Vanderschuren and Trezza, Curr. Topics Behav. Neurosci. 2014, 16:189-212). Social play behavior is indicative of healthy social functioning in adult life and is defective after prenatal VPA treatment in the offspring (Schneider and Przewlocki Neuropsychopharmacology 2005, 30:80-89). At postnatal day 30, following 8 days treatment with the test compound, prenatally VPA-treated rats are evaluated for juvenile play behavior. The test is carried out in a test arena unknown to the rats with pairs of animals from the same treatment group over a 15 min trial. Animals are scored for duration of social play behavior. […]

For experiment [5], the system named is prenatal valproate exposure model. Conditions: dose of risperidone applied in the present study (0.003 mg/kg); cited from earlier work.

“Also recorded” adds a separate entry of the source.

Regarding `CC(=O)N1CCC(Oc2ccc(OCCCN3CCC[C@H]3C)cc2)CC1` [1-[4-(4-{3-[(2R)-2-methylpyrrolidin-1-yl]-propoxy}-phenoxy)-piperidin-1-yl]-ethan-1-on dicitrate], the “effect on social recognition memory versus VPA+VEH familiar” value in experiment [1] (1 mg/kg per os once daily for 9 days, dicitrate) is listed as “statistically significant; also recorded: fully reversed social recognition memory deficits”. Moreover, in experiment [1] (per os once daily for 9 days, doses 0.01, 0.1 and 1 mg/kg), the “reversal of the social recognition deficit induced by prenatal valproate treatment” value is on record as “reversed the social recognition deficit”. Also, the “effect on social preference versus VPA+VEH” value in experiment [2] (0.1 mg/kg per os once daily for 8 days) is on record as “statistically significant”; in experiment [2] (1 mg/kg per os once daily for 8 days, dicitrate), “statistically significant; also recorded: fully reversed social preference deficits”. Besides, the “reversal of the social preference deficit induced by prenatal valproate treatment” value in experiment [2] (per os once daily for 8 days, doses 0.01, 0.1 and 1 mg/kg) is “reversed the social preference deficit”. The “reversal of the socio-communicational defect (ultrasound emissions induced by separation from mothers)” value in experiment [3] is “dose-proportionally reversed the socio-communicational defect”. In addition, the “significance of effect on social play versus VPA+VEH” value in experiment [4] (0.1 mg/kg per os once daily for 8 days, dicitrate) is recorded as “statistically significant; also recorded: reaching significance”; in experiment [4] (1 mg/kg per os once daily for 8 days) it was “statistically significant”. Besides, the “reversal of the social play deficit induced by prenatal valproate treatment (duration of social play behavior)” value in experiment [4] (per os once daily for 8 days, doses 0.01, 0.1 and 1 mg/kg (as free base), dicitrate) was “reversed the social play deficit; also recorded: partially reversed social play deficits”.
As for `Cc1nc2n(c(=O)c1CCN1CCC(c3noc4cc(F)ccc34)CC1)CCCC2` [risperidone], the “efficacy signal in the prenatal valproate exposure model” value in experiment [5] is listed as “produce an efficacy signal”.

(Values after US20220235034A1, “SELECTIVE HISTAMINE H3 RECEPTOR ANTAGONISTS FOR TREATING AUTISM SPECTRUM DISORDER” (RICHTER GEDEON NYRT., priority 2019, published 2022).)
